What all share (test): relative viability (nuclei count vs DMSO), 5 days (fraction); higher = more cells survive
Compound in test [1]: COc1cc2nc(N3CCCN(C)CC3)nc(NC3CCN(Cc4ccccc4)CC3)c2cc1OC
In outline: (§1)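 Viability was defined as treated-well nuclei divided by vehicle-well nuclei, with the median taken over replicate plates. Cells from lung cancer lines sat overnight at 37 °C in 1536-well plates, received five √10-spaced library-drug doses by pinning on vehicle-anchored plates, and grew 5 days without medium change before one-step fixation, permeabilisation and Hoechst staining, 4× imaging and MetaXpress nuclear counts. Only plates with control CV under 25% and at least one doubling were kept.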

Compound in another test: Cc1cc([C@@H](C)Nc2ccccc2C(=O)O)c2nc(N3CCOCC3)cc(=O)n2c1 [AZD6482]
The procedure, abridged:
as §1

Compound in test [2]: COc1cc2nc(N3CCCN(C)CC3)nc(NC3CCN(Cc4ccccc4)CC3)c2cc1OC + COc1cc2c(Oc3ccc(NC(=O)C4(C(=O)Nc5ccc(F)cc5)CC4)cc3F)ccnc2cc1OCCCN1CCOCC1 [Foretinib] (partner 0.25 µM)
The procedure, abridged:
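One day after seeding in 1536-well plates, lung cancer cell lines were dosed by pin tool. Dosing was either single-drug or a fixed anchor-drug dose plus five library-drug doses (not always all listed) in √10 steps. After 5 days, nuclei were stained in one fix-and-stain step and counted on 4× images, and relative viability is the nuclei count of treated wells over that of vehicle wells, given as the median of duplicate plates.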

The record followed here is the supplement of paper PMC10307832.

As for UMC-11, the relative viability in test [1] (0.2 µM) came to 0.998; in test [1] (0.6325 µM), 0.973; in test [1] (2 µM), 1.06; in test [1] (6.325 µM), 0.932; in the test with AZD6482 (0.08 µM) it was 0.949; with AZD6482 (0.253 µM), 0.94. In addition, the relative viability with AZD6482 (0.8 µM) is 1.01; with AZD6482 (2.53 µM), 0.736; with AZD6482 (8 µM), 1.22; in test [2] (first compound 0.2 µM) it was 0.943; in test [2] (first compound 0.6325 µM), 1.05; in test [2] (first compound 2 µM), 1.15. The relative viability in test [2] (first compound 6.325 µM) amounted to 0.826.
